This passage reports IC50 results from patent publication US10179782B2, “Substituted sulfonamide compounds” (Genentech, Inc., priority 2016, dated 2019).

The target of this experiment is T1, human TRPA1 (Homo sapiens, UniProt O75762).
T1 construct: expressed in transfected cells; host or cells: CHO cells
The experiment is described as follows: TRPA1 FLIPR Tetra calcium influx assay in CHO cells (block of cinnamaldehyde-induced calcium influx). It counts as cell-based. Particulars: Table 2; CHO cells expressing TRPA1; agonist cinnamaldehyde 75 uM; 20 min compound incubation; Hill coefficient fixed to 1.5; read-out: hTRPA1 CHO Ca2+ AUC EVO (IC50). The gist of the method:
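IC50s were derived from a Hill fit with n fixed at 1.5, using inhibition of FLIPR Tetra calcium signals in dye-loaded TRPA1-CHO cells. Cells sat with compound 20 min at room temperature in HBSS with 20 mM HEPES (pH 7.4) and 0.02% BSA, then were challenged with cinnamaldehyde near EC80: 75 µM human, 45 µM rat.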

T1 sequence (O75762 whole entry): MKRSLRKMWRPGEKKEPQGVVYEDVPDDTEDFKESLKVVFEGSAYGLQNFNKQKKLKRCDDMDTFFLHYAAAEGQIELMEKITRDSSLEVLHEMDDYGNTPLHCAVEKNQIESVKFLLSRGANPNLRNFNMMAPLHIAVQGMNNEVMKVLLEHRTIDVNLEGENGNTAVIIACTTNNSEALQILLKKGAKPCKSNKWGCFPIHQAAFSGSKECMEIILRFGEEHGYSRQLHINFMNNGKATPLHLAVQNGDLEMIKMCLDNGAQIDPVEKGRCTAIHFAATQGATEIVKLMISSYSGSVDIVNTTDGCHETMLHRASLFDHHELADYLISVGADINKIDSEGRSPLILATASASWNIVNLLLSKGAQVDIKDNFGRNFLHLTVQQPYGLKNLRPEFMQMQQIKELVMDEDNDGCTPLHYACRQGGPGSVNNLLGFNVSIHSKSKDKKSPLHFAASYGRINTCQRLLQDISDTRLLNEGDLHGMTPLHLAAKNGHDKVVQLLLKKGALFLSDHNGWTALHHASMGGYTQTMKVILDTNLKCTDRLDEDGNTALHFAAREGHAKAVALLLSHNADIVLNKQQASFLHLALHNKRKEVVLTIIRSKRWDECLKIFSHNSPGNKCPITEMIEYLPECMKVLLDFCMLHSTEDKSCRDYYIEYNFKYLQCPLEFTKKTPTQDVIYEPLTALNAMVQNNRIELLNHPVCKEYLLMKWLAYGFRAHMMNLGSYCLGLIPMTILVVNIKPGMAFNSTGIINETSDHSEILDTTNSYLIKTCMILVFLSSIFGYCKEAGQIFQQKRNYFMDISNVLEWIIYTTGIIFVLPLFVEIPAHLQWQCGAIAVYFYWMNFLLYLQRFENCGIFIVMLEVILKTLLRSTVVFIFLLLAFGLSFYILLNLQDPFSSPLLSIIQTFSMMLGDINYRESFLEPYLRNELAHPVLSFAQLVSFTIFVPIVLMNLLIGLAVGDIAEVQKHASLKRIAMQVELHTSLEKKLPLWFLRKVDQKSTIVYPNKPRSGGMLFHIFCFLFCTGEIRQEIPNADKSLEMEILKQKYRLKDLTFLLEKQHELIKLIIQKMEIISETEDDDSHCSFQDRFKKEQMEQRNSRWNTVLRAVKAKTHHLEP

In general, IC50 refers to the midpoint of a concentration-inhibition curve. As to `C[C@H]1[C@H](F)C[C@@H](C(=O)NCc2cc(-c3cnc(C(F)(F)F)cn3)ncc2C(F)(F)F)N1S(=O)(=O)c1ccc(F)cc1` [Example 112, (2S,4R,5 S)-4-fluoro-1-(4-fluorophenylsulfonyl)-5-methyl-N-((5-(trifluoromethyl)-2-(5-(trifluoromethyl)pyrazin-2-yl)pyridin-4-yl)methyl)pyrrolidine-2-carboxamide], the IC50 came out at 1.94 nM.
For the compound `C[C@H]1[C@H](F)C[C@@H](C(=O)NCc2cc(-c3cnc(C(F)(F)F)nc3)nc(C(F)(F)F)c2)N1S(=O)(=O)c1ccc(F)cc1` [Example 113, (2S,4R,5S)-4-fluoro-1-(4-fluorophenyl)sulfonyl-5-methyl-N-[[2-(trifluoromethyl)-6-[2-(trifluoromethyl)pyrimidin-5-yl]-4-pyridyl]methyl]pyrrolidine-2-carboxamide], the IC50 came to 4.47 nM.
Take `C[C@H]1[C@H](F)C[C@@H](C(=O)NCc2cc(-c3ccc(OC(F)F)nc3)ncc2C(F)(F)F)N1S(=O)(=O)c1ccc(F)cc1` [Example 114, (2S,4R,5S)—N-([2-[6-(difluoromethoxy)pyridin-3-yl]-5-(trifluoromethyl)pyridin-4-yl]methyl)-4-fluoro-1-[(4-fluorobenzene)sulfonyl]-5-methylpyrrolidine-2-carboxamide]: the half-maximal inhibitory concentration (IC50) was 3.57 nM.
As for `C[C@H]1[C@H](F)C[C@@H](C(=O)NCc2cc(-c3ccc(C(F)(F)F)nc3)ncc2C(F)(F)F)N1S(=O)(=O)c1ccc(F)cc1` [Example 115, (2S,4R,5S)-4-fluoro-1-(4-fluorophenyl)sulfonyl-5-methyl-N-[[5-(trifluoromethyl)-2-[6-(trifluoromethyl)-3-pyridyl]-4-pyridyl]methyl]pyrrolidine-2-carboxamide], the figure is 1.34 nM.
As for `C[C@H]1[C@H](F)C[C@@H](C(=O)NCc2cc(-c3cnc(C(F)(F)F)nc3)ncc2C(F)(F)F)N1S(=O)(=O)c1ccc(C#N)cc1` [Example 116, (2S,4R,5S)-1-(4-cyanophenyl)sulfonyl-4-fluoro-5-methyl-N-[[5-(trifluoromethyl)-2-[2-(trifluoromethyl)pyrimidin-5-yl]-4-pyridyl]methyl]pyrrolidine-2-carboxamide], the IC50 was determined as 5.75 nM.
For `COc1nn(-c2cnc(C(F)(F)F)nc2)cc1CNC(=O)[C@@H]1C[C@@H](F)[C@H](C)N1S(=O)(=O)c1cc2cc(F)ccc2o1` [Example 117, (2S,4R,5S)-4-fluoro-1-(5-fluorobenzofuran-2-yl)sulfonyl-N-[[3-methoxy-1-[2-(trifluoromethyl)pyrimidin-5-yl]pyrazol-4-yl]methyl]-5-methyl-pyrrolidine-carboxamide], the IC50 turned out to be 1.09 nM.
As for `C[C@H]1[C@H](F)C[C@@H](C(=O)NCc2cc(-c3cnc(C(F)(F)F)nc3)c(F)cn2)N1S(=O)(=O)c1ccc(F)c(F)c1` [Example 118, (2S,4R,5S)-1-(3,4-difluorophenyl)sulfonyl-4-fluoro-N-[[5-fluoro-4-[2-(trifluoromethyl)pyrimidin-5-yl]-2-pyridyl]methyl]-5-methyl-pyrrolidine-2-carboxamide], the figure is 2.29 nM.
Next, `C[C@H]1[C@H](F)C[C@@H](C(=O)NCc2cc(-c3cnc(C(F)(F)F)nc3)ncc2C(F)(F)F)N1S(=O)(=O)c1ccc(F)c(F)c1` [Example 119, (2S,4R,5S)-1-(3,4-difluorophenyl)sulfonyl-4-fluoro-5-methyl-N-[[5-(trifluoromethyl)-2-[2-(trifluoromethyl)pyrimidin-5-yl]-4-pyridyl]methyl]pyrrolidine-2-carboxamide]: 0.836 nM.
`C[C@H]1[C@H](F)C[C@@H](C(=O)NCc2cc(C(F)(F)F)nc(C3CC3)n2)N1S(=O)(=O)c1cc2cc(F)ccc2o1` [Example 120, (2S,4R,5S)-N-[[2-cyclopropyl-6-(trifluoromethyl)pyrimidin-4-yl]methyl]-4-fluoro-1-(5-fluorobenzofuran-2-yl)sulfonyl-5-methyl-pyrrolidine-2-carboxamide]: the IC50 was 1.52 nM.
As for `C[C@H]1[C@H](F)C[C@@H](C(=O)NCc2cc(-c3cnc(C(F)(F)F)nc3)nc(C3CC3)c2)N1S(=O)(=O)c1ccc(F)cc1` [Example 121, (2S,4R,5S) N-[[2-cyclopropyl-6-[2-(trifluoromethyl)pyrimidin-5-yl]-4-pyridyl]methyl]-4-fluoro-1-(4-fluorophenyl)sulfonyl-5-methyl-pyrrolidine-2-carboxamide], the half-inhibitory concentration (IC50) is 1.45 nM.
Turning to `C[C@H]1[C@H](F)C[C@@H](C(=O)NCc2cc(-c3cnc(C(F)(F)F)nc3)ncc2OCC(F)(F)F)N1S(=O)(=O)c1ccc(F)cc1` [Example 122, (2S,4R,5S)-4-fluoro-1-(4-fluorophenylsulfonyl)-5-methyl-N-((5-(2,2,2-trifluoroethoxy)-2-(2-(trifluoromethyl)pyrimidin-5-yl)pyridin-4-yl)methyl)pyrrolidine-2-carboxamide], the IC50 stood at 5.51 nM.
As for `C[C@H]1[C@H](F)C[C@@H](C(=O)NCc2cc(C(F)(F)F)nc(C3CC3)c2F)N1S(=O)(=O)c1ccc(F)cc1` [Example 123, (2S,4R,5S)-N-[[2-cyclopropyl-3-fluoro-6-(trifluoromethyl)-4-pyridyl]methyl]-4-fluoro-1-(4-fluorophenyl)sulfonyl-5-methyl-pyrrolidine-2-carboxamide], the figure is 10.8 nM; as for `C[C@H]1[C@H](F)C[C@@H](C(=O)NCc2cc(-c3cnc(C(F)(F)F)nc3)nc(OCC(F)(F)F)n2)N1S(=O)(=O)c1ccc(F)cc1` [Example 124, (2S,4R,5S)-4-fluoro-1-(4-fluorophenyl)sulfonyl-5-methyl-N-[[2-(2,2,2-trifluoroethoxy)-6-[2-(trifluoromethyl)pyrimidin-5-yl]pyrimidin-4-yl]methyl]pyrrolidine-2-carboxamide], 2.3 nM.
As for `C[C@H]1[C@H](F)C[C@@H](C(=O)NCc2cc(-c3cnc(C(F)(F)F)nc3)ncc2C2CC2)N1S(=O)(=O)c1ccc(F)cc1` [Example 125, (2S,4R,5S)-N-[[5-cyclopropyl-2-[2-(trifluoromethyl)pyrimidin-5-yl]-4-pyridyl]methyl]-4-fluoro-1-(4-fluorophenyl)sulfonyl-5-methyl-pyrrolidine-2-carboxamide], the figure is 4.9 nM; as for `COc1nc(CNC(=O)[C@@H]2C[C@@H](F)[C@H](C)N2S(=O)(=O)c2ccc(F)cc2)cc(-c2cnc(C(F)(F)F)nc2)n1` [Example 126, (2S,4R,5S)-4-fluoro-1-(4-fluorophenyl)sulfonyl-N-[[2-methoxy-6-[2-(trifluoromethyl)pyrimidin-5-yl]pyrimidin-4-yl]methyl]-5-methyl-pyrrolidine-2-carboxamide], 12.8 nM.
Next, `C[C@H]1[C@H](F)C[C@@H](C(=O)NCc2cc([C@H]3C[C@@H](OC(F)(F)F)C3)ncc2F)N1S(=O)(=O)c1ccc(F)cc1` [Example 127, (2S,4R,5S)-4-fluoro-1-(4-fluorophenyl)sulfonyl-N-[[5-fluoro-2-[3-(trifluoromethoxy)cyclobutyl]-4-pyridyl]methyl]-5-methyl-pyrrolidine-2-carboxamide]: 4.27 nM; `C[C@H]1[C@H](F)C[C@@H](C(=O)NCc2cc(-c3cc(C(F)(F)F)nn3C)ncc2F)N1S(=O)(=O)c1ccc(F)cc1` [Example 128, (2S,4R,5S)-4-fluoro-N-[[5-fluoro-2-[2-methyl-5-(trifluoromethyl)pyrazol-3-yl]-4-pyridyl]methyl]-1-(4-fluorophenyl)sulfonyl-5-methyl-pyrrolidine-2-carboxamide]: 18.2 nM.
For `C[C@H]1[C@H](F)C[C@@H](C(=O)NCc2cc(-c3cnc(C(F)(F)F)s3)ncc2C#N)N1S(=O)(=O)c1ccc(F)cc1` [Example 129, (2S,4R,5S)—N-((5-cyano-2-(2-(trifluoromethyl)thiazol-5-yl)pyridin-4-yl)methyl)-4-fluoro-1-((4-fluorophenyl)sulfonyl)-5-methylpyrrolidine-2-carboxamide], the concentration for half-maximal inhibition (IC50) stood at 4.14 nM.
As for `C[C@H]1[C@H](F)C[C@@H](C(=O)NCc2cc(-c3cnc(C(F)(F)F)nc3)cc(C3CC3)n2)N1S(=O)(=O)c1ccc(F)cc1` [Example 130, (2S,4R,5S)-N-[[6-cyclopropyl-4-[2-(trifluoromethyl)pyrimidin-5-yl]-2-pyridyl]methyl]-4-fluoro-1-(4-fluorophenyl)sulfonyl-5-methyl-pyrrolidine-2-carboxamide], the IC50 was 3.82 nM.
For the compound `C[C@H]1[C@H](F)C[C@@H](C(=O)NCc2cc(-c3cnc(C(F)(F)F)nc3)c(F)c(C3CC3)n2)N1S(=O)(=O)c1ccc(F)cc1` [Example 131, (2S,4R,5S)-N-[[6-cyclopropyl-5-fluoro-4-[2-(trifluoromethyl)pyrimidin-5-yl]-2-pyridyl]methyl]-4-fluoro-1-(4-fluorophenyl)sulfonyl-5-methyl-pyrrolidine-2-carboxamide], the IC50 was found to be 4.04 nM.
As for `C[C@H]1[C@H](F)C[C@@H](C(=O)NCc2cc(OC[C@@H]3C[C@H]3C(F)(F)F)nc(C3CC3)n2)N1S(=O)(=O)c1ccc(F)cc1` [Example 132, (2S,4R,5S)-N-[[2-cyclopropyl-6-[[(1R,2R)-2-(trifluoromethyl)cyclopropyl]methoxy]pyrimidin-4-yl]methyl]-4-fluoro-1-(4-fluorophenyl)sulfonyl-5-methyl-pyrrolidine-2-carboxamide], the figure is 15.2 nM.
Consider `C[C@H]1[C@H](F)C[C@@H](C(=O)NCc2cc(-c3cnc(C(F)(F)F)nc3)c(C(F)F)cn2)N1S(=O)(=O)c1ccc(F)cc1` [Example 133, (2S,4R,5S)-N-[[5-(difluoromethyl)-4-[2-(trifluoromethyl)pyrimidin-5-yl]-2-pyridyl]methyl]-4-fluoro-1-(4-fluorophenyl)sulfonyl-5-methyl-pyrrolidine-2-carboxamide], for which the IC50 stood at 30.5 nM.
